Data: patent US20250340543A1, “GPR84 ANTAGONISTS AND USES THEREOF” (Liminal BioSciences Limited, priority 2021, published 2025)

Key:
neutrophils = assay: Neutrophil migration assay (embelin as chemotactic agent, transwell, ATPlite readout); assay type: cell-based; conditions: for Human Neutrophil migration inhibition - fold potency to Control Compound: IC50 normalized to GPR84 antagonist Control Compound; for IC50: Neutrophil, human neutrophils, embelin as chemotactic agent, read-out: Human Neutrophil migration inhibition IC50
Procedure: Neutrophil migration assay. After isolation, neutrophils were resuspended in chemotaxis buffer (DMEM supplemented with 10 mM HEPES) at a concentration of 8.9×10^6 cells/ml. In a 96-well plate, 20 μl of compound solution in chemotaxis buffer is added to 180 μl of cell suspension. After incubation at 37° C. for 30 minutes, 75 μL of cell suspension is transferred in the upper chamber of a 5 μm pore size Corning HTS transwell. 235 μL of chemotaxis buffer containing the chemotactic agent (embelin) is added to the lower chamber of the transwell. After a 60-minute incubation time at 37° C. in 5% CO2, the upper chamber of the transwell is removed and the plate is centrifuged at 1500 rpm for 6 minutes. Supernatant is removed and cells resuspended in 100 ul of PBS. ATP content was assessed using ATPlite Luminescence Assay System® according to manufacturer instructions (Perkin Elmer, Buckinghamshire, UK). Briefly, 50 μL of ATPlite buffer and 50 μL of lysis solution is added to the lower chamber of the Transwells. After incubation at room temperature, in the dark with constant agitation for 5 minutes, 150 μL of cell lysate is transferred in a 96 wells white plate and incubated for 10 minutes in the dark. Luminescence is read on a TECAN plate reader, Infinite M1000 (Tecan, Morrisville, NC).
The compound numbers correspond to the compound numbers in Table 1. […] Normalization of the results takes the donor's variation into account.

GPR84 [1] = biological target: T1, GPR84 (Homo sapiens (Human), UniProt Q9NQS5); assay: Gai biosensor BRET assay (GPR84-mediated activation of Gai, antagonist mode against agonist ZQ-16); assay type: cell-based; conditions: for IC50: HEK293 cells, 200 nmol/L GPR84 agonist ZQ-16, read-out: hGPR84 IC50; for inhibition at 10 µM: compound tested at 10 μM (concentration code D)
Procedure, shortened: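 Transiently transfected HEK293 cells expressing GPR84, Gαi2-Rluc8, GFP10-Gγ2 and Gβ1, in Tyrode's buffer pH 7.5. Compounds pre-incubated 5 min at 37° C, then 200 nmol/L ZQ-16 for 5 min at room temperature; BRET² with coelenterazine 400A, ligand-promoted net BRET after background and vehicle subtraction.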
Target sequence in this assay (Q9NQS5 whole entry): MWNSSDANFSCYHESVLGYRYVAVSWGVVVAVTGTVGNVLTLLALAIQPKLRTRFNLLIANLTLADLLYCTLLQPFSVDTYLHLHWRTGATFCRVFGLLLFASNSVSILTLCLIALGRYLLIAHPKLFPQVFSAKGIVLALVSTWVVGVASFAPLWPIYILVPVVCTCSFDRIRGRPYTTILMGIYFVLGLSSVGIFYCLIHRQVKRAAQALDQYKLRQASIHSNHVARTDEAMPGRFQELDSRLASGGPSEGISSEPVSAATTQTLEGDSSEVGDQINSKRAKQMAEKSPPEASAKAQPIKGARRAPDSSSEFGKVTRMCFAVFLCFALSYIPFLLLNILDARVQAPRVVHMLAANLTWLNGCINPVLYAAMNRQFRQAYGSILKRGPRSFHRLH

[2] = system: mouse dextran sodium sulfate-induced chronic inflammatory bowel disease model; conditions: once-daily doses of 3 and 10 mg/kg, mouse DSS-induced chronic IBD model; cited from earlier work
GPR84 [3] = biological target: T1, GPR84; conditions: literature (Wang et al. 2006); read-out: potency of GPR84 activation; cited from earlier work
Target sequence in this assay (Q9NQS5 whole entry, species assumed): as the sequence (Q9NQS5 whole entry) above

IC50 (neutrophils) [nM] | IC50 (GPR84 [1]) [nM] | inhibition at 10 µM (GPR84 [1]) [%] | Compound | Human Neutrophil migration inhibition - fold potency to Control Compound (neutrophils) | also measured
> 3000 | < 5000 |  | Cc1cc(OCC2COCCO2)cc(=O)n1Cc1cccc(C#CC2CC2)c1 (stereo not shown) [Compound I-2] | C (IC50≤0.5-fold relative to Control Compound) | inhibition at 25 µM (GPR84 [1]; compound tested at 25 μM (concentration code G)): > 75%
1000 to 3000 |  |  | Cc1cc(OC[C@H]2COc3ccccc3O2)cc(=O)n1Cc1cccc(C#CC2CC2)c1 [Compound I-30] | C (IC50≤0.5-fold relative to Control Compound) | inhibition at 2 µM (GPR84 [1]; compound tested at 2 μM (concentration code A)): 25 to 50%
1000 to 3000 |  | > 75 | Cc1cc(OCC2CCCOC2)cc(=O)n1[C@H](C)c1ccc(C#CC2CC2)cc1 (stereo partly shown) [Compound I-222] |  | 
≤ 300 | < 5000 | > 75 | Cc1cc(OCc2ncccn2)cc(=O)n1[C@H](C)c1ccc(C#CC2CC2)cc1 [Compound I-223] | B (IC50 of >0.5-≤1.0-fold relative to Control Compound) | 
 |  |  | O=c1nc(OC[C@@H]2COCCO2)cc2n1CCc1cc(C#CC3CC3)ccc1-2 [GLPG1205] |  | disease activity index score [2]: reduced; neutrophil infiltration [2]: reduced
 |  |  | CCCCCCCCCCCC(=O)O [lauric acid] |  | EC50 (GPR84 [3]): 11000 nM
